We go through 21 compounds from PubChem BioAssay AID330 (DTP/NCI, 2004).

For the experiment, the system named is P388 leukemia ip, CD2F1 mice, survival T/C. Kind of experiment: NCI In Vivo Anticancer Drug Screen. Data for tumor model P388 Leukemia (intraperitoneal) in CD2F1 (CDF1) mice. The conditions noted are these: endpoint: median survival time, higher = longer survival. In outline:
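Mice carrying the transplanted tumor received test compound or vehicle. Survival was recorded in each group, and the value is the treated-group measurement divided by that of the vehicle-treated control group.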

Where [1] appears, read: dose: 50.0 mg/kg/injection, schedule: Q01DX009 (ip), vehicle: saline with Tween-80.
[2] abbreviates: dose: 100.0 mg/kg/injection, schedule: Q01DX009 (ip), vehicle: saline with Tween-80.
Where [3] appears, read: dose: 200.0 mg/kg/injection, schedule: Q01DX009 (ip), vehicle: saline with Tween-80.
Where [4] appears, read: dose: 60.0 mg/kg/injection, schedule: Q01DX005 (ip), vehicle: Klucel (hydroxypropylcellulose) (HPC).
The mark [5] stands for this setting: dose: 120.0 mg/kg/injection, schedule: Q01DX005 (ip), vehicle: Klucel (hydroxypropylcellulose) (HPC).
[6] abbreviates: dose: 240.0 mg/kg/injection, schedule: Q01DX005 (ip), vehicle: Klucel (hydroxypropylcellulose) (HPC).
Setting [7] is: dose: 100.0 mg/kg/injection, schedule: Q01DX009 (ip), vehicle: Klucel (hydroxypropylcellulose) (HPC).
The mark [8] stands for this setting: dose: 200.0 mg/kg/injection, schedule: Q01DX009 (ip), vehicle: Klucel (hydroxypropylcellulose) (HPC).
Setting [9] is: dose: 400.0 mg/kg/injection, schedule: Q01DX009 (ip), vehicle: Klucel (hydroxypropylcellulose) (HPC).
The mark [10] stands for this setting: dose: 60.0 mg/kg/injection, schedule: Q01DX005 (ip), vehicle: saline with Tween-80.
Where [11] appears, read: dose: 120.0 mg/kg/injection, schedule: Q01DX005 (ip), vehicle: saline with Tween-80.
Where [12] appears, read: dose: 240.0 mg/kg/injection, schedule: Q01DX005 (ip), vehicle: saline with Tween-80.
Where [13] appears, read: dose: 50.0 mg/kg/injection, schedule: Q01DX009 (ip), vehicle: saline.
Where [14] appears, read: dose: 12.5 mg/kg/injection, schedule: Q01DX009 (ip), vehicle: saline.
The mark [15] stands for this setting: dose: 12.5 mg/kg/injection, schedule: Q01DX009 (ip), vehicle: water.
The mark [16] stands for this setting: dose: 25.0 mg/kg/injection, schedule: Q01DX009 (ip), vehicle: saline.
The mark [17] stands for this setting: dose: 25.0 mg/kg/injection, schedule: Q01DX009 (ip), vehicle: water.

“And” between values parts separate entries of the source, which are not always exact repeats. Equal entries are not always repeated. Toxic doses and inconclusive results are not listed.

Turning to `C1OC2CC1CO2`, the T/C was 100 % of control under setting [1], 103 % of control under setting [2] and 103 % of control under setting [3].

Regarding `COC(=O)C1C(c2ccccc2)C1(C#N)C#N` (centres undefined), the T/C reads like this: under setting [4], 96 % of control; under setting [5], 106 % of control; under setting [6], 98 % of control.

As to `COc1ccc2c(c1)-c1nn(CCO)c(-c3cccnc3)c1CC2`, the T/C runs as follows: (dose: 100.0 mg/kg/injection, schedule: Q04DX002 (ip), vehicle: DMSO) 94 % of control; (dose: 200.0 mg/kg/injection, schedule: Q04DX002 (ip), vehicle: DMSO) 102 % of control.

As to `CCNC(=O)OCc1c(Cl)nc2sccn12`, the T/C (dose: 100.0 mg/kg/injection, schedule: Q01DX001 (ip), vehicle: Klucel (hydroxypropylcellulose) (HPC)) was 106 % of control; the T/C (dose: 200.0 mg/kg/injection, schedule: Q01DX001 (ip), vehicle: Klucel (hydroxypropylcellulose) (HPC)) is 107 % of control; the T/C (dose: 400.0 mg/kg/injection, schedule: Q01DX001 (ip), vehicle: Klucel (hydroxypropylcellulose) (HPC)) was 100 % of control.

Consider `COc1cc2c(cc1OC)C(c1cccc(Cl)c1)=NN=C(C)C2`, for which the T/C was 105 % of control under setting [4], 101 % of control under setting [5] and 96 % of control under setting [6].

For `O=C1NC(=O)N(c2cccc(Cl)c2)C1=O`, the T/C (dose: 50.0 mg/kg/injection, schedule: Q01DX009 (ip), vehicle: Klucel (hydroxypropylcellulose) (HPC)) is 106 % of control; the T/C under setting [7] was 109 % of control; the T/C under setting [8] was 102 % of control.

`O=C(O)/C=C/C(=O)Nc1ccc(Cl)c(Cl)c1`: the T/C (dose: 6.25 mg/kg/injection, schedule: Q01DX009 (ip), vehicle: Klucel (hydroxypropylcellulose) (HPC)) was 105 % of control; the T/C (dose: 12.5 mg/kg/injection, schedule: Q01DX009 (ip), vehicle: Klucel (hydroxypropylcellulose) (HPC)) is 115 % of control; the T/C (dose: 25.0 mg/kg/injection, schedule: Q01DX009 (ip), vehicle: Klucel (hydroxypropylcellulose) (HPC)) is 105 % of control; the T/C under setting [9] was 109 % of control.

Regarding `CCOC(=O)C1(CC(C)C)CCOC1=O` (centres undefined), the T/C reads like this: (dose: 50.0 mg/kg/injection, schedule: Q01DX005 (ip), vehicle: Klucel (hydroxypropylcellulose) (HPC)) 99 % of control; (dose: 100.0 mg/kg/injection, schedule: Q01DX005 (ip), vehicle: Klucel (hydroxypropylcellulose) (HPC)) 96 % of control; (dose: 200.0 mg/kg/injection, schedule: Q01DX005 (ip), vehicle: Klucel (hydroxypropylcellulose) (HPC)) 97 % of control.

For the compound `CCOC(=O)N(C)C(C)Cc1ccccc1` (centres undefined), the T/C under setting [1] was 100 % of control, the T/C under setting [2] is 104 % of control and the T/C under setting [3] was 108 % of control.

Consider `CC1C(O)CCC2=CC(=O)C3(C4(CO)CO4)OC3C21C` (centres undefined), for which the T/C is 102 % of control (dose: 15.0 mg/kg/injection, schedule: Q01DX005 (ip), vehicle: saline); 91 % of control (dose: 30.0 mg/kg/injection, schedule: Q01DX005 (ip), vehicle: saline); 108 % of control (dose: 60.0 mg/kg/injection, schedule: Q01DX005 (ip), vehicle: saline); 103 % of control (dose: 62.5 mg/kg/injection, schedule: Q01DX005 (ip), vehicle: saline); 98 % of control (dose: 120.0 mg/kg/injection, schedule: Q01DX005 (ip), vehicle: saline); 110 % of control (dose: 125.0 mg/kg/injection, schedule: Q01DX005 (ip), vehicle: saline). In addition, the T/C (dose: 250.0 mg/kg/injection, schedule: Q01DX005 (ip), vehicle: saline) is 114 % of control.

On to `NC(=O)N/N=C1/CC(=O)N(c2ccccc2)C1c1ccccc1` (centres undefined), for which the T/C was 93 % of control under setting [10], 91 % of control under setting [11] and 92 % of control under setting [12].

With `C1COCCN2CCOCCOCCN(CCO1)CCOCC2`, the T/C runs as follows: under setting [13], 109 % of control; (dose: 100.0 mg/kg/injection, schedule: Q01DX009 (ip), vehicle: saline) 106 % of control; (dose: 200.0 mg/kg/injection, schedule: Q01DX009 (ip), vehicle: saline) 107 % of control.

`C[CH2][Ge]1([CH2]C)[CH2]CC2(CCN(CCCN(C)C)C2)C[CH2]1`: the T/C by setting is: (dose: 0.09 mg/kg/injection, schedule: Q01DX009 (ip), vehicle: saline) 103 % of control; (dose: 0.19 mg/kg/injection, schedule: Q01DX009 (ip), vehicle: saline) 103 % of control and 98 % of control; (dose: 0.39 mg/kg/injection, schedule: Q01DX009 (ip), vehicle: saline) 101 % of control and 103 % of control; (dose: 0.78 mg/kg/injection, schedule: Q01DX009 (ip), vehicle: saline) 100 % of control and 104 % of control; (dose: 1.56 mg/kg/injection, schedule: Q01DX009 (ip), vehicle: saline) 100 % of control and 92 % of control; (dose: 3.12 mg/kg/injection, schedule: Q01DX009 (ip), vehicle: saline) 104 % of control and 98 % of control. The T/C by setting is: (dose: 6.25 mg/kg/injection, schedule: Q01DX009 (ip), vehicle: saline) 104 % of control; (dose: 6.28 mg/kg/injection, schedule: Q01DX009 (ip), vehicle: water) 101 % of control; under setting [14], 101 % of control and 104 % of control; under setting [15], 106 % of control; under setting [16], 100 % of control and 105 % of control; under setting [17], 107 % of control. Besides, the T/C under setting [13] is 100 % of control and 98 % of control; the T/C (dose: 50.0 mg/kg/injection, schedule: Q01DX009 (ip), vehicle: water) was 123 % of control; the T/C (dose: 75.0 mg/kg/injection, schedule: Q01DX009 (ip), vehicle: saline) was 103 % of control and 104 % of control.

As to `COc1ccccc1/C=C/C1=C(C)C(=O)CC(c2ccccc2OC)C1C` (centres undefined), the T/C under setting [7] is 100 % of control, the T/C under setting [8] was 98 % of control and the T/C under setting [9] is 92 % of control.

As for `Cc1cc(C)c(C#N)c(OCC2CCCO2)n1` (centres undefined), the T/C runs as follows: (dose: 50.0 mg/kg/injection, schedule: Q01DX005 (ip), vehicle: saline with Tween-80) 95 % of control; (dose: 100.0 mg/kg/injection, schedule: Q01DX005 (ip), vehicle: saline with Tween-80) 95 % of control.

In the case of `O=NN(CCOCCCl)C(=O)NC1CCCCC1`, the T/C is, setting by setting: (dose: 6.25 mg/kg/injection, schedule: Q01DX009 (ip), vehicle: water) 100 % of control; under setting [15], 100 % of control; under setting [17], 107 % of control; (dose: 200.0 mg/kg/injection, schedule: Q01DX009 (ip), vehicle: water) 152 % of control.

With `O=S(=O)(O)O.[Fe]`, the T/C is 95 % of control (dose: 12.5 mg/kg/injection, schedule: Q01DX009 (ip), vehicle: saline with Tween-80); 95 % of control (dose: 25.0 mg/kg/injection, schedule: Q01DX009 (ip), vehicle: saline with Tween-80); 86 % of control under setting [1].

For `C1N2CN3CN1CN(C2)C3`, the T/C reads like this: (dose: 50.0 mg/kg/injection, schedule: Q01DX005 (ip), vehicle: saline) 95 % of control; (dose: 100.0 mg/kg/injection, schedule: Q01DX005 (ip), vehicle: saline) 101 % of control; (dose: 200.0 mg/kg/injection, schedule: Q01DX005 (ip), vehicle: saline) 96 % of control.

As to `CCc1nc(N)nc(N)c1-c1ccc(NC2CCCCC2)c([N+](=O)[O-])c1`, the T/C by setting is: under setting [10], 101 % of control; under setting [11], 95 % of control; under setting [12], 94 % of control.

For the compound `c1ccc2c(CC3=NCCN3)noc2c1`, the T/C under setting [14] was 98 % of control; the T/C under setting [16] is 105 % of control; the T/C under setting [13] is 103 % of control and 107 % of control.

`COC(=O)c1ccccc1N=NNc1ccccc1C(N)=O`: the T/C is, setting by setting: (dose: 100.0 mg/kg/injection, schedule: Q04DX003 (ip), vehicle: saline with Tween-80) 90 % of control; (dose: 200.0 mg/kg/injection, schedule: Q04DX003 (ip), vehicle: saline with Tween-80) 97 % of control; (dose: 400.0 mg/kg/injection, schedule: Q04DX003 (ip), vehicle: saline with Tween-80) 99 % of control.
